# According to patent US7105527B2, “N4-acylcytosine nucleosides for treatment of viral infections” (priority 2001, dated 2006):
# Read-outs that look alike come from different tables or passages of the source.
# How the values were obtained:
# [1] = Cytotoxicity assay in PBM cells; format: cell-based, human; settings: human, human PBM cells, Table 1, read-out: Cytotoxicity in different cells (IC50, μM) PBM
# Description: (§1) The toxicity of the compounds was assessed in Vero, human PBM, CEM (human lymphoblastoid), MT-2, and HepG2 cells, as described previously (Schinazi […]., Cannon D. L., Xie […]., Smith […]. […] Cycloheximide was included as positive cytotoxic control, and untreated cells exposed to solvent were included as negative controls. The cytotoxicity IC50 was obtained from the concentration-response curve using the median effective method described previously (Chou […]. […] Belen'kii M. S. & Schinazi R. F.
# HIV-1NL4-3 = assay: Anti-HIV assay in MT-4 cells, consensus p24 assay; format: cell-based; settings: Human immunodeficiency virus 1, MT4, Table 1, read-out: Anti-HIV-1 activity in different cells (EC90, μM) MT-4
# Description: (§2) In a second antiviral testing system, the potency of the compounds was determined by measurement of viral RNA accumulation in HIV-1RF infected MT-2 cells (Bacheler L T, Paul M, Otto M J, Jadhav P K, Stone B A & Miller J A (1994) An assay for HIV RNIn infected cell lysates, and its use for rapid evaluation of antiviral efficacy. Antivir. Chem. Chemother. 5:111–121). The virus titer was established to determine the dilution producing 15 to 30 ng/RNA per well of HIV RNIn 3 days of infection. HIV-1 RNA was quantified using biotinylated capture and alkaline phosphatase-derivatized reporter oligonucleotides as described previously (Charvet A-S, Camplo M, Faury P, Graciet J C, Mourier N, Chermann J C & Kraus J L (1994) Inhibition of human immunodeficiency virus type 1 replication by phosphonoformate- and phosphonoacetate-2′,3′-dideoxy-3′-thiacytidine conjugates. J. Med. Chem. 37:2216–2223). In a third system, the effect of analogs on the replication of HIV-1NL4-3 was determined via the InterCompany Consortium consensus p24 assay as previously described (Jadhav P K & MacKay M F (1997) Cyclic urea amide: HIV-1 protease inhibitors with low nanomolar potency against both wild types and protease inhibitor resistant mutants of HIV. J. Med. Chem. 40:181–190). Recombinant viruses were recovered by transfecting the appropriate NL4-3 plasmid by lipofection. Virus stocks recovered 7 to 10 days post-transfection were titered on MT-4 cells to determine if the dilution produced 1,000 to 3,000 ng p24 in 4 days. This dilution was then used in drug susceptibility assays, where drug was added 24 h post infection of cells, and p24 quantified by ELISA 3 days later.
# [2] = Cytotoxicity assay in HepG2 cells; format: cell-based; settings: human, Table 1, read-out: Cytotoxicity in different cells (IC50, μM) HepG2
# Description: as §1
# [3] = Cytotoxicity assay in CEM cells; format: cell-based, human; settings: human, CEM lymphoblastoid cells, Table 1, read-out: Cytotoxicity in different cells (IC50, μM) CEM
# Description: as §1
# [4] = Cytotoxicity assay in Vero cells; format: cell-based; settings: African green monkey, Table 1, read-out: Cytotoxicity in different cells (IC50, μM) Vero
# Description: as §1
# [5] = Cytotoxicity assay in MT-2 cells; format: cell-based; settings: human, Table 1, read-out: Cytotoxicity in different cells (IC50, μM) MT-2
# Description: as §1
# HIV-1RF = assay: Anti-HIV (in MT-2 cells) assay, viral RNA accumulation; format: cell-based; settings: EC90, MT-2 cells, read-out: Anti-HIV-1 activity in different cells (EC90, μM) MT-2
# Description: as §2
# HIV-1LAl = assay: Anti-HIV (in PBM cells) assay, reverse transcriptase readout; format: cell-based
# Description: Anti-HIV-1 activity of the compounds was determined in human peripheral blood mononuclear (PBM) cells as described previously (Schinazi […]., Cannon D., Mathis R., Lloyd R. M. Jr., […]., St. Clair M., Wilson J., Furman P. A., Painter G., Choi […]. Antimicrob. Agents Chemother. 1992, 36, 2423; Schinazi […]., Cannon D., Xie […]., Smith G., Hahn E. Antimicrob. Agents Chemother. 1990, 34, 1061). Stock solutions ([…]) of the compounds were prepared in sterile DMSO and then diluted to the desired concentration in growth medium. […] Virus obtained from the cell supernatant was quantified on day 6 after infection by a reverse transcriptase assay using (rA)n.(dT)12.18 as template-primer. […] AZT was included as positive control. The antiviral EC50 and EC90 were obtained from the concentration-response curve using the median effective method described previously (Chou […]. Enzyme Regul. 1984, 22, 27-55; Belen'kii M. S. & Schinazi R. F. Antiviral Res. 1994, 25, 1-11).
# human PBM cells = assay: Cytotoxicity assay in PBM cells; format: cell-based
# Description: as §1
# HepG2 cells = assay: Cytotoxicity assay in HepG2 cells; format: cell-based
# Description: as §1
# [6] = tested on: CEM (human lymphoblastoid) cells; assay: Cytotoxicity assay in CEM cells; format: cell-based
# Description: as §1
# Vero cells = assay: Cytotoxicity assay in Vero cells; format: cell-based
# Description: as §1
# MT-2 cells = assay: Cytotoxicity assay in MT-2 cells; format: cell-based
# Description: as §1
# [7] = Human immunodeficiency virus 1, MT2, Table 1
# [8] = Human immunodeficiency virus 1, PBMC, Table 1, read-out: Anti-HIV-1 activity in different cells (EC90, μM) PBM
# [9] = Table 1, read-out: Cytotoxicity in different cells (IC50, μM) PBM
# [10] = Table 1, read-out: Cytotoxicity in different cells (IC50, μM) HepG2
# [11] = Table 1, read-out: Cytotoxicity in different cells (IC50, μM) CEM
# [12] = Table 1, read-out: Cytotoxicity in different cells (IC50, μM) Vero
# [13] = Table 1, read-out: Cytotoxicity in different cells (IC50, μM) MT-2
# [14] = Table 1, read-out: Anti-HIV-1 activity in different cells (EC90, μM) PBM
# [15] = Table 2, read-out: Cytotoxicity in different cells (IC50, μM) PBM
# [16] = Table 2, read-out: Cytotoxicity in different cells (IC50, μM) HepG2
# [17] = Table 2, read-out: Cytotoxicity in different cells (IC50, μM) CEM
# [18] = Table 2, read-out: Cytotoxicity in different cells (IC50, μM) Vero
# [19] = Table 2, read-out: Cytotoxicity in different cells (IC50, μM) MT-2
# [20] = Table 2, read-out: Anti-HIV-1 activity in different cells (EC90, μM) PBM
smiles,measurement,setting,value
"O=C(Nc1nc(=O)n([C@H]2CC[C@@H](CO)O2)cc1F)c1ccc(F)cc1 [Compound 11, β-D-2′,3′-Dideoxy-5-fluoro-N^4-(4-fluorobenzoyl)cytidine]",IC50,[1],> 100 µM
same,EC90,HIV-1NL4-3,0.61 µM
same,IC50,[2],> 100 µM
same,IC50,[3],45.7 µM
same,IC50,[4],> 100 µM
same,IC50,[5],> 50 µM
same,EC90,HIV-1RF; [7],0.32 µM
same,EC90,HIV-1LAl; [8],0.027 µM
"CCc1ccc(C(=O)Nc2nc(=O)n([C@H]3CC[C@@H](CO)O3)cc2F)cc1 [Compound 25, β-D-2′,3′-Dideoxy-N^4-(4-ethylbenzoyl)-5-fluorocytidine]",IC50,[1],> 100 µM
same,EC90,HIV-1NL4-3,0.22 µM
same,IC50,[2],> 100 µM
same,IC50,[3],89.8 µM
same,IC50,[4],> 100 µM
same,IC50,[5],50 µM
same,EC90,HIV-1RF; [7],0.12 µM
same,EC90,HIV-1LAl; [8],0.03 µM
"O=C(Nc1nc(=O)n([C@H]2CC[C@@H](CO)O2)cc1F)c1cccnc1 [Compound 31, β-D-2′,3′-Dideoxy-5-fluoro-N^4-(nicotinoyl)cytidine]",IC50,human PBM cells; [9],8.8 µM
same,IC50,HepG2 cells; [10],19.4 µM
same,IC50,[6]; [11],5.5 µM
same,IC50,Vero cells; [12],28.1 µM
same,IC50,MT-2 cells; [13],> 50 µM
same,EC90,HIV-1RF; Table 1,5.9 µM
same,EC90,HIV-1LAl; [14],0.17 µM
"O=C(Nc1nc(=O)n([C@H]2C=C[C@@H](CO)O2)cc1F)c1cccnc1 [Compound 55, β-D-2, 3′-Didehydro-2′,3′-dideoxy-5-fluoro-N^4-nicotinoylcytidine]",IC50,human PBM cells; [15],13.8 µM
same,IC50,HepG2 cells; [16],10.3 µM
same,IC50,[6]; [17],6.7 µM
same,IC50,Vero cells; [18],13.1 µM
same,IC50,MT-2 cells; [19],> 50 µM
same,EC90,HIV-1RF; Table 2,29 µM
same,EC90,HIV-1LAl; [20],42.3 µM
"Cc1ccccc1C(=O)Nc1nc(=O)n([C@H]2C=C[C@@H](CO)O2)cc1F [Compound 50, β-D-2′,3′-Didehydro-2′,3′-dideoxy-5-fluoro-N^4-o-toluoylcytidine]",IC50,human PBM cells; [15],58.4 µM
same,IC50,HepG2 cells; [16],> 100 µM
same,IC50,[6]; [17],46.4 µM
same,IC50,Vero cells; [18],> 100 µM
same,IC50,MT-2 cells; [19],> 50 µM
same,EC90,HIV-1RF; Table 2,> 50 µM
same,EC90,HIV-1LAl; [20],56.8 µM
"O=C(Nc1nc(=O)n([C@H]2C=C[C@@H](CO)O2)cc1F)c1ccc([N+](=O)[O-])cc1 [Compound 45, β-D-2′,3′-Didehydro-2′,3′-dideoxy-5-fluoro-N^4-(4-nitrobenzoyl)cytidine]",IC50,human PBM cells; [15],3.4 µM
same,IC50,HepG2 cells; [16],5.6 µM
same,IC50,[6]; [17],4.2 µM
same,IC50,Vero cells; [18],6.6 µM
same,IC50,MT-2 cells; [19],> 50 µM
same,EC90,HIV-1RF; Table 2,0.29 µM
same,EC90,HIV-1LAl; [20],1.7 µM
"O=C(Nc1nc(=O)n([C@H]2CC[C@@H](CO)O2)cc1F)c1ccco1 [Compound 29, β-D-2′,3′-Dideoxy-5-fluoro-N^4-(2-furoyl)cytidine]",IC50,human PBM cells; [9],16.9 µM
same,IC50,HepG2 cells; [10],31.1 µM
same,IC50,[6]; [11],5.7 µM
same,IC50,Vero cells; [12],29.6 µM
same,IC50,MT-2 cells; [13],> 50 µM
same,EC90,HIV-1RF; Table 1,0.9 µM
same,EC90,HIV-1LAl; [14],1.5 µM
"O=C(Nc1nc(=O)n([C@H]2C=C[C@@H](CO)O2)cc1F)c1cc2ccccc2s1 [Compound 56, β-D-2′,3′-Didehydro-2′,3′-dideoxy-5-fluoro-N-(benzo[b]thiophene-2-carbonyl)cytidine]",IC50,human PBM cells; [15],2.2 µM
same,IC50,HepG2 cells; [16],1.3 µM
same,IC50,[6]; [17],2.8 µM
same,IC50,Vero cells; [18],5.6 µM
same,IC50,MT-2 cells; [19],> 50 µM
same,EC90,HIV-1RF; Table 2,0.3 µM
same,EC90,HIV-1LAl; [20],0.29 µM
